Test results reported in US9643980B2, “Benzoxazepin oxazolidinone compounds and methods of use” (Genentech, Inc., priority 2015, dated 2017).
Read-outs that look alike come from different tables or passages of the source.

Experiments:
[1] = biological target: PI3Kδ (Homo sapiens, UniProt O00329); experiment: PI3K binding assay (lipid kinase reaction, ADP-Glo), PI3K delta; type: biochemical; details: Table 2A; first value of cell (ADP-Glo, Example 901)
Procedure: (§1) Reactions are carried out using the following conditions for each PI3K isoform as in Table 5.
(§2) All reactions are carried out at room temperature. […] The reaction is started by the addition of 2 μL ATP/MgCl2. The kinase reaction buffer contains 50 mM HEPES, 50 mM NaCl 3 mM MgCl2, 0.01% BSA, 1% DMSO, and enzyme and substrate concentrations as indicated in the above table. The reaction is stopped by the addition of 10 μL ADP-Glo reagent. Plates are read in a Perkin Elmer Envision system using luminescence mode. 10 point dose response curves are generated for each test compound. Ki values for each compound are determined using the Morrison Equation.

[2] = test system: P-PRAS40 SW48(parental); experiment: Inhibition of P-PRAS40 in SW48 isogenic cells, PI3Kα wild-type (parental); details: Homo sapiens, SW48, 24 h
[3] = test system: KPL4 cells (PI3Kα mutant H1047R); experiment: In vitro cell viability assay (Cell Titer-Glo), KPL4
[4] = biological target: T1, PI3Kβ (Homo sapiens, UniProt P42338); experiment: PI3K binding assay (lipid kinase reaction, ADP-Glo), PI3K beta; type: biochemical; details: Table 2A; first value of cell (ADP-Glo, Example 901)
T1 sequence (P42338 whole entry): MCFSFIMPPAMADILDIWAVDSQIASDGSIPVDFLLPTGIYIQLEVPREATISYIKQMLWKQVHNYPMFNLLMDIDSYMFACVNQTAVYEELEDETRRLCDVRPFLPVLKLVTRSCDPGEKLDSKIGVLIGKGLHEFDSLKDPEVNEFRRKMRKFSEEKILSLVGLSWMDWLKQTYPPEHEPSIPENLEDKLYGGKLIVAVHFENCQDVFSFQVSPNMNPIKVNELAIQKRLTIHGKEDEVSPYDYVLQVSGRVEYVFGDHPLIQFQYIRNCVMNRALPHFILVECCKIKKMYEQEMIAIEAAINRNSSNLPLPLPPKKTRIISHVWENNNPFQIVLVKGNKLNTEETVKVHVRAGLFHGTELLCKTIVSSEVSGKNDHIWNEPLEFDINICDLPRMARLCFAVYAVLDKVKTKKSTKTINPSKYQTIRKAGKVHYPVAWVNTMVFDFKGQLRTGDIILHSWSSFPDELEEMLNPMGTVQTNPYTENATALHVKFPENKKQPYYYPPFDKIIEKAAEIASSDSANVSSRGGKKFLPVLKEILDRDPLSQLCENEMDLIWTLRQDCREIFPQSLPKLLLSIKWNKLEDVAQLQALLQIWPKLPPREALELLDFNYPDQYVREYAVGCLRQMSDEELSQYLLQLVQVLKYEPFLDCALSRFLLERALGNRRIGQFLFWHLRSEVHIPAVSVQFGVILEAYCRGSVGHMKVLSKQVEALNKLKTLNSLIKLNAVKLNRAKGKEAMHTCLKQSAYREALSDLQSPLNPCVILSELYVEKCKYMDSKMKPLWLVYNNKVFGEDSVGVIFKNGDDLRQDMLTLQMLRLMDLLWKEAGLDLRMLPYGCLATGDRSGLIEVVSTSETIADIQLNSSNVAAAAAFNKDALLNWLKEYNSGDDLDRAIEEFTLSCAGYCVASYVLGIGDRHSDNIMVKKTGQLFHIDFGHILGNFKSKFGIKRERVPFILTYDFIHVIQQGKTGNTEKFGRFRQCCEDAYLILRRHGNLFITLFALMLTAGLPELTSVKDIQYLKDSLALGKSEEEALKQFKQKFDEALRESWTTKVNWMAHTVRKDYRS
T1 sequence (P27986 whole entry partner): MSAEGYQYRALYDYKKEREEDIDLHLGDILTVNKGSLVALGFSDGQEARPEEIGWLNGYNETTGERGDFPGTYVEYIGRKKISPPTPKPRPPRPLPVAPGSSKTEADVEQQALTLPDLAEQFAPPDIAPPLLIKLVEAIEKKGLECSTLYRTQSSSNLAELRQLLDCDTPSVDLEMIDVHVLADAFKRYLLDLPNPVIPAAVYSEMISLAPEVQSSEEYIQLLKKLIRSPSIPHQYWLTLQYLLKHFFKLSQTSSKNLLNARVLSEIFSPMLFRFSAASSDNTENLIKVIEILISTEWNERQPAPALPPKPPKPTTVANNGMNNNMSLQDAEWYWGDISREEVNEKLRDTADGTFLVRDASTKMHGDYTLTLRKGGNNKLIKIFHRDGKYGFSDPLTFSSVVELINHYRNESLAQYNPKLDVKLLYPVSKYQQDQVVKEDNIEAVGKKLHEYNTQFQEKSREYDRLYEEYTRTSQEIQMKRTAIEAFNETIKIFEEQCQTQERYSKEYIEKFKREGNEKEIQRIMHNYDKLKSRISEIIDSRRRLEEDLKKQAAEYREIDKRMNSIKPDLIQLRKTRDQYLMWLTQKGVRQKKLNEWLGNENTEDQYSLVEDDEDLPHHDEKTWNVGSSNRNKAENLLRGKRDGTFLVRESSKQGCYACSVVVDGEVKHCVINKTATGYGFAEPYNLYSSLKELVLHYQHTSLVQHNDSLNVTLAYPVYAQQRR
Procedure: as §1, §2

[5] = test system: HCC1954 cells (PI3Kα mutant H1047R); experiment: In vitro cell viability assay (Cell Titer-Glo), HCC1954
[6] = test system: P-PRAS40 SW48(H1047R); experiment: Inhibition of P-PRAS40 in SW48 isogenic cells, PI3Kα mutant H1047R; type: cell-based; details: for EC50: Homo sapiens, SW48, 24 hours of compound treatment, read-out: P-PRAS40 SW48(H1047R) EC50; for Fold Selectivity for SW48(H1047R) vs. SW48(parental): EC50 potency ratio, p value (Student t-Test) given
Procedure: (§3) All statistics were performed using KaleidaGraph Software (version 4.1.3). A Student t-Test was performed using unpaired data with equal variance to compare activity against mutant cells and wild-type cells. P<0.05 is considered to be significant.
(§4) The following assays are intended for determining the cellular potency and mutant selectivity of small molecule PI3Kα inhibitors. […] Mutant selectivity of PI3Kα inhibitors is determined by EC50 potency ratios in the WT vs. E545K cell lines and WT vs. H1047R cell lines.
(§5) The three cell lines (WT, E545K, and H1047R) are plated and assayed in parallel. The following day, test compounds are serially diluted in dimethyl sulfoxide (DMSO) and added to cells (final DMSO concentration 0.5%). […] Cell lysates are added to assay plates pre-coated with antibodies against phosphorylated PRAS40. Phosphorylated PRAS40 in samples are allowed to bind to the capture antibodies overnight at 4° C. The detection antibody (anti-total PRAS40, labeled with an electrochemiluminescent SULFO-TAG) is added to the bound lysate and incubated for 1 hour at room temperature. The MSD Read Buffer is added such that when a voltage is applied to the plate electrodes, the labels bound to the electrode surface emit light. The MSD Sector Instrument measures the intensity of the light, and quantitatively measures the amount of phosphor-PRAS40 in the sample. Percent inhibition of PRAS40 phosphorylation by varying concentrations of test compounds is calculated relative to untreated controls. EC50 values are calculated using the 4 parameter logistic nonlinear regression dose-response model.

[7] = biological target: PI3Kα (Homo sapiens, UniProt P42336); experiment: PI3K binding assay (lipid kinase reaction, ADP-Glo), PI3K alpha; type: biochemical; details: for Ki: first value of cell (ADP-Glo, Example 901), read-out: PI3Kα Ki
PI3Kα, sequence (P42336 whole entry): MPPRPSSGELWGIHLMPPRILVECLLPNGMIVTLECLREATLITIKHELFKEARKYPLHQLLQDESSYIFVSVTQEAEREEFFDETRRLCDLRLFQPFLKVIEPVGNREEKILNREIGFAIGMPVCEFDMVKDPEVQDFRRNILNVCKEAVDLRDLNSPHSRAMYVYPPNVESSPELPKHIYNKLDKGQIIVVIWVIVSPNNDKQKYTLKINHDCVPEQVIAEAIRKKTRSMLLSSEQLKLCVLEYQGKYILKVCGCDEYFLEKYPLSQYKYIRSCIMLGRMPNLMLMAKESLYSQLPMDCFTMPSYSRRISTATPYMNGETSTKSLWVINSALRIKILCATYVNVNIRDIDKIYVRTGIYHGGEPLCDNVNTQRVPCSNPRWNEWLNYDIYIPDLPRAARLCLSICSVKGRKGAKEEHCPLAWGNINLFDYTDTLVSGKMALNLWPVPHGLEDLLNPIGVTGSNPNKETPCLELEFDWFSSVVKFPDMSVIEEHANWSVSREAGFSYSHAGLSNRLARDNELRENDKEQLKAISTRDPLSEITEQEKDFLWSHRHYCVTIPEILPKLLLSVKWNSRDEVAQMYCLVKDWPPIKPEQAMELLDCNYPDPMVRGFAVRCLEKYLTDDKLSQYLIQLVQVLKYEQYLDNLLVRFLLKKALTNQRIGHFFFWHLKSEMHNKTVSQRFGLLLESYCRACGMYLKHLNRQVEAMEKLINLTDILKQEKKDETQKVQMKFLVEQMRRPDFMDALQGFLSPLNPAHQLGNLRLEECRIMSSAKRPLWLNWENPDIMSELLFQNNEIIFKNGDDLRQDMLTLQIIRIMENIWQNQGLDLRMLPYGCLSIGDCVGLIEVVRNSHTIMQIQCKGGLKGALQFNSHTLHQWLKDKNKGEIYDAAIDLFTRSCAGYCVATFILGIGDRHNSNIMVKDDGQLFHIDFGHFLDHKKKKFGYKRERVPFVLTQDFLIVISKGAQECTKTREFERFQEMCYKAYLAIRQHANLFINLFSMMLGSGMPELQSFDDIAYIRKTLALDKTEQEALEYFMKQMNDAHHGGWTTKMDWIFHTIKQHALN
PI3Kα, sequence (P27986 whole entry partner): as the sequence (P27986 whole entry partner) above
Procedure: as §1, §2

[8] = test system: KPL4 breast cancer cell line (PI3Kα mutant H1047R) tumors; details: KPL4 xenograft in SCID mice, daily PO (oral) dosing; for Tolerability / treatment-related body weight loss: all doses; for Inhibition of KPL4 tumor growth in vivo: FIGS. 2A and 2B
Procedure: (70-72° F.) and 40-60% humidity.
Tumor weight may be estimated with the assumption that 1 mg is equivalent to 1 mm^3 of tumor volume.

[9] = test system: P-PRAS40 SW48(E545K); experiment: Inhibition of P-PRAS40 in SW48 isogenic cells, PI3Kα mutant E545K; type: cell-based; details: for EC50: Homo sapiens, SW48, 24 hours of compound treatment, read-out: P-PRAS40 SW48(E545K) EC50; for Fold Selectivity for SW48(E545K) vs. SW48(parental): EC50 potency ratio, p value (Student t-Test) given
Procedure: as §3, §4, §5

[10] = biological target: T2, PI3Kγ (Homo sapiens, UniProt P48736); experiment: PI3K binding assay (lipid kinase reaction, ADP-Glo), PI3K gamma; type: biochemical; details: Table 2A; first value of cell (ADP-Glo, Example 901)
T2 sequence (P48736 whole entry): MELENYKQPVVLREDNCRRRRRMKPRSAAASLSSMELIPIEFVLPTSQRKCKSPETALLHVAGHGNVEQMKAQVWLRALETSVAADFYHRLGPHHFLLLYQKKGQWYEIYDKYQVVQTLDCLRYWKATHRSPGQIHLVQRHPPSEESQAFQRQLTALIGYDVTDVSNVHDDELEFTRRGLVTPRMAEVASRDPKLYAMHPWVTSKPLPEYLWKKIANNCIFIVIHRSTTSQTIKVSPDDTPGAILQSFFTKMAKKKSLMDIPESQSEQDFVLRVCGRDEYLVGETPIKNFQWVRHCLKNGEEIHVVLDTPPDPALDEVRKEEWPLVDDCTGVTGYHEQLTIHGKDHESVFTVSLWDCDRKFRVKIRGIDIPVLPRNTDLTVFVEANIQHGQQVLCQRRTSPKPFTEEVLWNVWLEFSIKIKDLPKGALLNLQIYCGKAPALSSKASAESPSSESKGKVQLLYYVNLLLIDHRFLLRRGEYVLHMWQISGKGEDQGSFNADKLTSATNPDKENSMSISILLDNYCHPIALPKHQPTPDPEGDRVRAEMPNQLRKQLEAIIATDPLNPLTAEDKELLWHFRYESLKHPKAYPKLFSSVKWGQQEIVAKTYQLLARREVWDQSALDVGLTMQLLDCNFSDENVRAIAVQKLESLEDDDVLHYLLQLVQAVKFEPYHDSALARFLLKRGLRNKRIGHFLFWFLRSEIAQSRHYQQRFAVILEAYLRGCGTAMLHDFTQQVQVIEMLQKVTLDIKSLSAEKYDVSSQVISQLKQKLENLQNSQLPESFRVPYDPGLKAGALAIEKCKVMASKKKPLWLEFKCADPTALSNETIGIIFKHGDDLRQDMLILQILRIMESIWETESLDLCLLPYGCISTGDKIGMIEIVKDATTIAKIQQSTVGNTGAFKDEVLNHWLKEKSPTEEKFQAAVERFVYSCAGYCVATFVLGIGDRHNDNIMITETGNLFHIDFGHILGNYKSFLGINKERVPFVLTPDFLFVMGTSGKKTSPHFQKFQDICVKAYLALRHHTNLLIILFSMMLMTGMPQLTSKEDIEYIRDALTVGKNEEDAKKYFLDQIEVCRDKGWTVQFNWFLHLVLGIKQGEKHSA
Procedure: as §1, §2

[11] = test system: MCF7 cells (PI3Kα mutant E545K); experiment: In vitro cell viability assay (Cell Titer-Glo), MCF7
[12] = test system: locally advanced or metastatic solid tumors; details: phase Ia, single agent; all responses in patients with PIK3CA mutant tumors (Juric D. et al. AACR 2013); cited from earlier work
[13] = biological target: T1, PI3Kβ; experiment: Fluorescence polarization (FP) Ki, methods of Example 901 of U.S. Pat. No. 8,242,104, PI3K beta; details: read-out: PI3Kβ FP Ki; Table 2A; second value of cell after slash (FP)
[14] = biological target: T2, PI3Kγ; experiment: Fluorescence polarization (FP) Ki, methods of Example 901 of U.S. Pat. No. 8,242,104, PI3K gamma; details: read-out: PI3Kγ FP Ki; Table 2A; second value of cell after slash (FP)
[15] = read-out: P-PRAS40 SW48(parental) EC50 (nM)
[16] = KPL4, 96 h, read-out: KPL4 antiproliferative EC50 (μM)
[17] = Homo sapiens, HCC1954, 96 h, read-out: HCC1954 antiproliferative EC50 (μM)
[18] = Table 2A, selectivity ratio (fold)
[19] = Homo sapiens, MCF7, 96 h, read-out: MCF7 antiproliferative EC50 (μM)
[20] = read-out: KPL4 antiproliferative EC50, 4 d incubation, Cell Titer-Glo
[21] = read-out: HCC1954 antiproliferative EC50, 4 d incubation, Cell Titer-Glo
[22] = read-out: MCF7 antiproliferative EC50, 4 d incubation, Cell Titer-Glo

PI3Kδ, sequence (O00329 whole entry, canonical isoform): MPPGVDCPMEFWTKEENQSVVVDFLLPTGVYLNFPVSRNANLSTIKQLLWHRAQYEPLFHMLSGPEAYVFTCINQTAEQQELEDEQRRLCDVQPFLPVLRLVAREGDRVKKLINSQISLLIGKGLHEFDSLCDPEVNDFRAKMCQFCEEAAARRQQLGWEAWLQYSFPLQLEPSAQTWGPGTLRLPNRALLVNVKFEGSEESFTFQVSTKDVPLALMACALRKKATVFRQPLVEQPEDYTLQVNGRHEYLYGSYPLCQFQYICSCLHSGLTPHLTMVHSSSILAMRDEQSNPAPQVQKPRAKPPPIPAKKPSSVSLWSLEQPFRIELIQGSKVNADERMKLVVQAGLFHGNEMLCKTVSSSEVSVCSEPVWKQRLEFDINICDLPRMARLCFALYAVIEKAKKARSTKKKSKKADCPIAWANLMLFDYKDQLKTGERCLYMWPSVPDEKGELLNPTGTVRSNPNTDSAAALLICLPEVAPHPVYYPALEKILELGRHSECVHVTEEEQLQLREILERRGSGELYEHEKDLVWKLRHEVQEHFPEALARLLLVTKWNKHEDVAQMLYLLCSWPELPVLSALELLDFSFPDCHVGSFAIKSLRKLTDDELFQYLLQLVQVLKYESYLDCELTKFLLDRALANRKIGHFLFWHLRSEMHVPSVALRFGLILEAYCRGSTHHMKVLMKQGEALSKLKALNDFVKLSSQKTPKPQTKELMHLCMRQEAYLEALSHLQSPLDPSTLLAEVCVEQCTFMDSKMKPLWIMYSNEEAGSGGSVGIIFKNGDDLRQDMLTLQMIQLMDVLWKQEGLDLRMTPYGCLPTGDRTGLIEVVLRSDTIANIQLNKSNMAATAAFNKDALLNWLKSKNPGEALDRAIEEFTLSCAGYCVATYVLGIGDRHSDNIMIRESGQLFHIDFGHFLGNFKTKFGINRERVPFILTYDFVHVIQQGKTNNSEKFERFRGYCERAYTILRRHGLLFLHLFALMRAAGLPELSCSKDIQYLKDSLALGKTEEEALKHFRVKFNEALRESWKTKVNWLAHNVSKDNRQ
PI3Kδ, sequence (P27986 whole entry partner, canonical isoform): as the sequence (P27986 whole entry partner) above

Row | EC50 [3, 20] | EC50 [5, 21] | EC50 [11, 22] | Compound | Ki [1] | EC50 [2, 15] | EC50 [3, 16] | Ki [4] | EC50 [5, 17] | EC50 ([6]; Table 3A, geometric mean) | Fold Selectivity for SW48(H1047R) vs. SW48(parental) ([6]; Table 3A) | Ki ([7]; Table 2A) | Selectivity for PI3Kα vs. PI3K-β [7, 18] | Selectivity for PI3Kα vs. PI3Kγ [7, 18] | Selectivity for PI3Kα vs. PI3Kδ [7, 18] | Tolerability / treatment-related body weight loss [8] | Inhibition of KPL4 tumor growth in vivo [8] | EC50 ([9]; Table 3A, geometric mean) | Fold Selectivity for SW48(E545K) vs. SW48(parental) ([9]; Table 3A) | Ki [10] | EC50 [11, 19] | further results
1 |  |  |  | C[C@@H]1COC(=O)N1c1cn2c(n1)-c1ccc(N3CCC[C@H]3C(N)=O)cc1OCC2 [Compound 102, (S)-1-(2-((R)-4-Methyl-2-oxooxazolidin-3-yl)-5,6-dihydrobenzo[f]imidazo[1,2-d][1,4]oxazepin-9-yl)pyrrolidine-2-carboxamide] | 13.3 nM | 39.2 nM | 0.05 µM | 418 nM | 0.48 µM | 16.4 nM | 2.4 (p < 0.001) | 0.56 nM | 745 | 366 | 24 | well tolerated, with no treatment-related body weight loss observed | strongly inhibit the growth of KPL4 tumors in vivo in a dose-dependent manner | 16.6 nM | 2.4 (p < 0.001) | 205 nM | 0.1 µM | 
2 |  |  |  | C[C@H](Oc1ccc2c(c1)OCCn1cc(N3C(=O)OC[C@H]3C(F)(F)F)nc1-2)C(N)=O [Compound 105, (S)-2-((2-((S)-2-Oxo-4-(trifluoromethyl)oxazolidin-3-yl)-5,6-dihydrobenzo[f]imidazo[1,2-d][1,4]oxazepin-9-yl)oxy)propanamide] | 42.2 nM | 199 nM | 0.008 µM | 661 nM | 0.005 µM | 53.6 nM | 3.7 (p = 0.008) | 2.75 nM |  |  |  |  |  | 62.9 nM | 3.2 (p = 0.012) | 255 nM | 0.05 µM | Selectivity for PI3Kα vs. PI3K-β [7]: 241; Selectivity for PI3Kα vs. PI3Kγ [7]: 93; Selectivity for PI3Kα vs. PI3Kδ [7]: 15
3 | 0.02 µM | 0.04 µM | 0.02 µM | Cc1nc(-c2cn3c(n2)-c2ccc(-c4cnn(C(C)(C)C(N)=O)c4)cc2OCC3)n(C(C)C)n1 [taselisib, 2-(4-(2-(1-isopropyl-3-methyl-1H-1,2,4-triazol-5-yl)-5,6-dihydrobenzo[f]imidazo[1,2-d][1,4]oxazepin-9-yl)-1H-pyrazol-1-yl)-2-methylpropanamide, reference compound] |  |  |  | 53 nM |  |  |  |  |  |  |  |  |  |  |  |  |  | Partial responses (PRs) in enrolled patients [12]: 6/34; Ki [13]: 9.1 nM; EC50 ([2]; read-out: P-PRAS40 SW48(parental) EC50 (μM)): 7.9 nM; Ki [14]: 0.97 nM; EC50 ([6]; Table 3B comparator compounds): 4 nM; EC50 ([9]; Table 3B comparator compounds): 3.4 nM
4 | 0.21 µM | 0.75 µM | 0.12 µM | CS(=O)(=O)N1CCN(Cc2cc3nc(-c4cccc5[nH]ncc45)nc(N4CCOCC4)c3s2)CC1 [pictilisib, 4-(2-(1H-indazol-4-yl)-6-((4-(methylsulfonyl)piperazin-1-yl)methyl)thieno[3,2-d]pyrimidin-4-yl)morpholine, reference compound] |  |  |  |  |  |  |  |  |  |  |  |  |  |  |  |  |  | 
5 |  |  |  | NC(=O)[C@@H]1CCCN1c1ccc2c(c1)OCCn1cc(N3C(=O)OC[C@H]3C(F)(F)F)nc1-2 [Compound 103, (S)-1-(2-((S)-2-Oxo-4-(trifluoromethyl)oxazolidin-3-yl)-5,6-dihydrobenzo[f]imidazo[1,2-d][1,4]oxazepin-9-yl)pyrrolidine-2-carboxamide] | 2.28 nM | 18.7 nM | 0.02 µM | 108 nM | 0.15 µM | 7.1 nM | 2.6 (p = 0.002) | 0.155 nM | 698 | 290 | 15 | well tolerated, with no treatment-related body weight loss observed | strongly inhibit the growth of KPL4 tumors in vivo in a dose-dependent manner | 6.9 nM | 2.7 (p = 0.002) | 45 nM | 0.38 µM | 
